Assay results from ChEMBL document CHEMBL1201862, “PubChem BioAssay data set” (2004).
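Compound exposure: 48 hours, 5 concentrations, 96-well plates. The concentration for 50% growth inhibition is given as GI50.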 Activity calls are given as the source filed them. No stated cut-off is given here; in the data, active = GI50 up to about 1.1 µM and inactive = higher.

Tests used:
Assay in all cases: growth of human tumour cells (NCI), 48 h
U-251 = system: U-251
CAKI-1 = system: CAKI-1
OVCAR-4 = system: OVCAR-4
SR = system: SR
HCT-15 = system: HCT-15
MDA-MB-435 = system: MDA-MB-435
KM12 = system: KM12
MDA-MB-231 = system: MDA-MB-231
HL-60 = system: HL-60
TK-10 = system: TK-10
HOP-92 = system: HOP-92
Malme-3M = system: Malme-3M
SK-MEL-2 = system: SK-MEL-2
HCT-116 = system: HCT-116
K562 = system: K562
SK-MEL-5 = system: SK-MEL-5
M14 = system: M14
MDA-N = system: MDA-N

Compound | GI50 (U-251) | GI50 (CAKI-1) | GI50 (OVCAR-4) | GI50 (SR) | GI50 (HCT-15) [µM] | GI50 (MDA-MB-435) | GI50 (KM12) | GI50 (MDA-MB-231) | GI50 (HL-60) | GI50 (TK-10) | GI50 (HOP-92) | GI50 (Malme-3M) | GI50 (SK-MEL-2) | GI50 (HCT-116) | GI50 (K562) | GI50 (SK-MEL-5) | GI50 (M14) | GI50 (MDA-N)
Clc1ccccc1CN1COc2c(cc(Cl)c3cccnc23)C1 | 3.33 µM (inactive) | 4.49 µM (inactive) | 3.97 µM (inactive) | 0.439 µM (active) | 0.165 | 6.19 µM (inactive) | 3.03 µM (inactive) | 2.3 µM (inactive) | 0.398 µM (active) | 3.44 µM (inactive) | 3.18 µM (inactive) | 2.47 µM (inactive) | 6.19 µM (inactive) | 3.64 µM (inactive) | 2.99 µM (inactive) | 1.38 µM (inactive) | 3.77 µM (inactive) | 
COc1ccc2[nH]c3c(c2c1)CC(=O)N1CCCC(CC3O)C1 (stereo unspecified) | > 100 µM (inactive) | > 100 µM (inactive) | > 100 µM (inactive) |  | > 100 | > 100 µM (inactive) | > 100 µM (inactive) | > 100 µM (inactive) |  | > 100 µM (inactive) | > 100 µM (inactive) | > 100 µM (inactive) | > 100 µM (inactive) | > 100 µM (inactive) | > 100 µM (inactive) | > 100 µM (inactive) |  | > 100 µM (inactive)
O=c1c2ccccc2nc2n1C(c1ccc([N+](=O)[O-])cc1)C2(c1ccccc1)c1ccccc1 (stereo unspecified) | > 100 µM (inactive) | > 100 µM (inactive) | > 100 µM (inactive) |  | > 100 | > 100 µM (inactive) | > 100 µM (inactive) | > 100 µM (inactive) | 37.2 µM (inactive) | > 100 µM (inactive) | > 100 µM (inactive) | > 100 µM (inactive) | > 100 µM (inactive) | > 100 µM (inactive) |  | > 100 µM (inactive) | > 100 µM (inactive) | > 100 µM (inactive)
c1ccc2sc(C3(N4CCC5(CC4)OCCO5)CCCCC3)cc2c1 |  | > 100 µM (inactive) | > 100 µM (inactive) | 7.89 µM (inactive) | > 100 | 58.6 µM (inactive) | 56.4 µM (inactive) |  | 12.2 µM (inactive) | 90.6 µM (inactive) | 25.8 µM (inactive) | > 100 µM (inactive) |  | 58.1 µM (inactive) | > 100 µM (inactive) | 50.5 µM (inactive) | 61.1 µM (inactive) | 80.4 µM (inactive)
CCCCNC(=S)c1ccc(OC(=O)Nc2ccc(Cl)cc2)cc1 | > 100 µM (inactive) | 18.5 µM (inactive) | 8.43 µM (inactive) | 16.3 µM (inactive) | 12.2 | 70.1 µM (inactive) | 2.75 µM (inactive) |  | 8.57 µM (inactive) |  |  | 79.8 µM (inactive) | 19.3 µM (inactive) | 38.4 µM (inactive) | 1.83 µM (inactive) | 20 µM (inactive) | 9.27 µM (inactive) | > 100 µM (inactive)
CCOC(=O)N(NC(=O)NC(C)C)c1ccccc1 | > 100 µM (inactive) | > 100 µM (inactive) | > 100 µM (inactive) | > 100 µM (inactive) | > 100 |  | > 100 µM (inactive) | > 100 µM (inactive) | 60.1 µM (inactive) | > 100 µM (inactive) | > 100 µM (inactive) | > 100 µM (inactive) | > 100 µM (inactive) | > 100 µM (inactive) | > 100 µM (inactive) | > 100 µM (inactive) | > 100 µM (inactive) | > 100 µM (inactive)
O=C1CCc2nc3ncccc3cc2C1 |  | > 100 µM (inactive) | > 100 µM (inactive) |  | 96.4 | 44 µM (inactive) |  | > 100 µM (inactive) |  | > 100 µM (inactive) | > 100 µM (inactive) | > 100 µM (inactive) | > 100 µM (inactive) | 65.5 µM (inactive) | 29.2 µM (inactive) | > 100 µM (inactive) | > 100 µM (inactive) | 63.5 µM (inactive)
CC(C)(O)/C=C\P(=O)(O)O | > 100 µM (inactive) | > 100 µM (inactive) | > 100 µM (inactive) | > 100 µM (inactive) | > 100 | > 100 µM (inactive) | > 100 µM (inactive) |  |  | > 100 µM (inactive) | > 100 µM (inactive) | > 100 µM (inactive) | > 100 µM (inactive) | > 100 µM (inactive) | > 100 µM (inactive) | > 100 µM (inactive) | > 100 µM (inactive) | > 100 µM (inactive)
Cc1ccc(C(=O)Nc2ccc(CP(=O)(O)O)cc2CP(=O)(O)O)cc1NC(=O)c1cccc(NC(=O)Nc2cccc(C(=O)Nc3cc(C(=O)Nc4ccc(CP(=O)(O)O)cc4CP(=O)(O)O)ccc3C)c2)c1 | > 100 µM (inactive) | > 100 µM (inactive) | > 100 µM (inactive) |  | > 100 | > 100 µM (inactive) | > 100 µM (inactive) | > 100 µM (inactive) | > 100 µM (inactive) | > 100 µM (inactive) |  | > 100 µM (inactive) | > 100 µM (inactive) | > 100 µM (inactive) | > 100 µM (inactive) | > 100 µM (inactive) | > 100 µM (inactive) | > 100 µM (inactive)
